According to patent US20120283245A1, “AZABICYCLO[3.1.0]HEX-2-YL COMPOUNDS, A PROCESS FOR THEIR PREPARATION AND PHARMACEUTICAL COMPOSITIONS CONTAINING THEM” (LES LABORATOIRES SERVIER, priority 2009, published 2012):
pKi: −log10 of the molar value. Structures can show the parent of a compound that is named as a salt.

Target: T1, type H3 central histamine receptors (Mus musculus, UniProt P58406)
T1 construct: from tissue; host or cells: brain of living NMRI mice (oral dosing)
Assay: Cerebral levels of Nτ-methylhistamine in the NMRI mouse (ex vivo)
Conditions: 3 mg/kg PO, one hour after treatment, versus carrier controls
Protocol: The purpose of this study, which was carried out in accordance with the method of Taylor et al. (Biochem. Pharm., 1992, 44, 1261-1267), is to evaluate the ex vivo activity of the compounds of the present invention as antagonists of type H3 central histamine receptors. […] An increase in the cerebral concentrations of N^τ-methylhistamine indicates an increase in to the turn-over of histamine by blockage of the type H3 central histamine receptors. NMRI mice (18-20 g) are treated with compounds of the present invention or with their carrier (20 ml/kg) by the oral route. One hour after the pharmacological treatment, the animals are sacrificed; the brains are removed, frozen in liquid nitrogen, weighed and homogenised in 0.1N HClO4 at 4° C. The homogenised products are centrifuged (15000 g, 17 mins., 4° C.). The supernatants are recovered and divided into aliquots. The aliquots are frozen in liquid nitrogen and stored at −80° C. until they are analysed. Determination of the cerebral levels of N^τ-methylhistamine is carried out by capillary electrophoresis. The tissue levels of N^τ-methylhistamine are expressed in μg/g of fresh brain. The comparison of the cerebral levels of N^τ-methylhistamine between animals treated with the carrier (controls) and animals treated with compounds of the present invention is carried out by single-factor variance analysis followed, if necessary, by a complementary analysis (Dunnett's test).

T1 sequence (P58406 whole entry): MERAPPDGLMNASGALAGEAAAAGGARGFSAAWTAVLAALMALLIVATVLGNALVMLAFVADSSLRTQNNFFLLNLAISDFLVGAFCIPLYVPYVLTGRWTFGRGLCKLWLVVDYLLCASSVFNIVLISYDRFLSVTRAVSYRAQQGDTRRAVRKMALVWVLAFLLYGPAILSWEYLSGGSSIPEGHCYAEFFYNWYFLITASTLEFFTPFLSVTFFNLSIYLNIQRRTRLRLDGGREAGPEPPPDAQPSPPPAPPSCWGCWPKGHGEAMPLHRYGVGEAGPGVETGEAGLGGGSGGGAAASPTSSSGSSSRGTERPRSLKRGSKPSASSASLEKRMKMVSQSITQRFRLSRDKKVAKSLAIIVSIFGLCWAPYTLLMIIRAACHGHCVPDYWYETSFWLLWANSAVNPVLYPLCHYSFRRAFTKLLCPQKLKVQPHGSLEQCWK

SMILES	increase of endogenous cerebral concentrations of Nτ-methylhistamine
CC(=O)N(C)c1ccc(OCCCN2CC[C@H]3C[C@H]32)cc1.Cl (relative stereo) [Example 8, N-(4-{3-(cis-2-azabicyclo[3.1.0]hex-2-yl)propoxy}phenyl)-N-methyl-acetamide hydrochloride]	+276%
COCC(=O)Nc1ccc(OCCCN2CC[C@H]3C[C@H]32)cc1 (relative stereo) [Example 9, N-(4-{3-(cis-2-azabicyclo[3.1.0]hex-2-yl)propoxy}phenyl)-2-methoxy-acetamide hydrochloride]	+250%
CC(=O)Nc1ccc(OCCN2CC[C@H]3C[C@H]32)cc1.Cl (relative stereo) [Example 4, N-(4-{2-(cis-2-azabicyclo[3.1.0]hex-2-yl)ethoxy}phenyl)acetamide hydrochloride]	+221%
CNC(=O)c1ccc(OCCCN2CC[C@H]3C[C@H]32)cc1.Cl (relative stereo) [Example 7, 4-{3-(cis-2-Azabicyclo[3.1.0]hex-2-yl)propoxy}-N-methylbenzamide hydrochloride]	+377%
CC(=O)Nc1ccc(OCCCN2CC[C@H]3C[C@H]32)cc1 (relative stereo) [Example 3, N-(4-{3-(cis-2-azabicyclo[3.1.0]hex-2-yl)propoxy}phenyl)acetamide hydrochloride]	+272%
CCN(CC)C(=O)c1ccc(OCCCN2CC[C@H]3C[C@H]32)cc1.Cl (relative stereo) [Example 6, 4-{3-(cis-2-Azabicyclo[3.1.0]hex-2-yl)propoxy}-N,N-diethylbenzamide hydrochloride]	+225%

Target: T2, type H3 mouse histamine receptors (Mus musculus, UniProt P58406)
T2 construct: expressed in transfected cells; host or cells: CHO cells
Assay: Affinity for mouse H3 receptors (iodoproxyfan displacement, transfected CHO cells)
Type: binding
Conditions: mouse H3 receptors transfected into CHO cells, iodoproxyfan radioligand, 24 h at room temperature
Protocol: The purpose is to measure the affinity of compounds of the present invention for type H3 mouse histamine receptors transfected into CHO cells. The compounds are incubated at different concentrations in the presence of transfected CHO cells, iodoproxyfan as a radiolabelled ligand which is specific for H3 receptors, and scintillant beads for 24 h at room temperature. At the end of the incubation, the displacement of the specific binding of the ligand by the compounds under test is measured, and the affinity constants of those compounds for mouse H3 receptors are determined

T2 sequence (P58406 whole entry): as above

SMILES	pKi
CN(C)C(=O)c1ccc(OCCCN2CC[C@H]3C[C@H]32)cc1 (racemic) [Example 5, 4-{3-(cis-2-Azabicyclo[3.1.0]hex-2-yl)propoxy}-N,N-dimethylbenzamide hydrochloride]	6.74
NC(=O)c1ccc(OCCCN2CC[C@H]3C[C@H]32)cc1 (racemic) [Example 1, 4-[3-(cis-2-Azabicyclo[3.1.0]hex-2-yl)propoxy]-benzamide hydrochloride]	5.62
CC(=O)Nc1ccc(OCCCN2CC[C@H]3C[C@H]32)cc1 (racemic) [Example 3, N-(4-{3-(cis-2-azabicyclo[3.1.0]hex-2-yl)propoxy}phenyl)acetamide hydrochloride]	6.12
COCC(=O)Nc1ccc(OCCCN2CC[C@H]3C[C@H]32)cc1 (racemic) [Example 9, N-(4-{3-(cis-2-azabicyclo[3.1.0]hex-2-yl)propoxy}phenyl)-2-methoxy-acetamide hydrochloride]	6.41
